# Activity calls are given as the source filed them. The rule behind the calls is not given here.
# System: rodent lifetime carcinogenesis bioassay, tumor incidence TD50
# Assay: chronic cancer bioassays in animals – CPDB, compiled studies (AID 1745844)
structure (smiles),measurement,setting,value
ClCc1cccnc1,TD50,"mouse, strain B6C3F1, females, by gavage, site: any site (literature study), lesion: several types, types named in the paper, dosed 91 weeks, study length 104 weeks",141 mg/kg/day
same,TD50,"mouse, strain B6C3F1, females, by gavage, site: liver, lesion: hepatocellular adenoma + hepatocellular carcinoma + neoplastic nodule, dosed 91 weeks, study length 104 weeks",16300 mg/kg/day
same,TD50,"mouse, strain B6C3F1, females, by gavage, site: lung, lesion: alveolar/bronchiolar adenoma + alveolar/bronchiolar carcinoma, dosed 91 weeks, study length 104 weeks",1970 mg/kg/day
same,TD50,"mouse, strain B6C3F1, females, by gavage, site: stomach, lesion: squamous-cell carcinoma + squamous-cell papilloma, dosed 91 weeks, study length 104 weeks",394 mg/kg/day
same,TD50,"mouse, strain B6C3F1, males, by gavage, site: any site (literature study), lesion: several types, types named in the paper, dosed 91 weeks, study length 104 weeks",64.9 mg/kg/day
same,TD50,"mouse, strain B6C3F1, males, by gavage, site: liver, lesion: hepatocellular adenoma + hepatocellular carcinoma + neoplastic nodule, dosed 91 weeks, study length 104 weeks",324 mg/kg/day
same,TD50,"mouse, strain B6C3F1, males, by gavage, site: lung, lesion: alveolar/bronchiolar adenoma + alveolar/bronchiolar carcinoma, dosed 91 weeks, study length 104 weeks",624 mg/kg/day
same,TD50,"mouse, strain B6C3F1, males, by gavage, site: stomach, lesion: squamous-cell carcinoma + squamous-cell papilloma, dosed 91 weeks, study length 104 weeks",161 mg/kg/day
same,TD50,"rat, strain Fischer 344, females, by gavage, site: any site (literature study), lesion: several types, types named in the paper, dosed 93 weeks, study length 104 weeks",160 mg/kg/day (inactive)
same,TD50,"rat, strain Fischer 344, males, by gavage, site: stomach, lesion: squamous-cell carcinoma + squamous-cell papilloma, dosed 93 weeks, study length 104 weeks",433 mg/kg/day
NC(=S)Nc1cccc2ccccc12,carcinogen call,"mouse, strain B6AKF1, females, oral dosing, site: any site (literature study), lesion: several types, types named in the paper, dosed 76 weeks, study length 76 weeks",negative (inactive)
same,carcinogen call,"mouse, strain B6AKF1, females, oral dosing, site: liver, lesion: hepatoma, dosed 76 weeks, study length 76 weeks",negative (inactive)
same,carcinogen call,"mouse, strain B6AKF1, females, oral dosing, site: lung, lesion: adenoma, dosed 76 weeks, study length 76 weeks",negative (inactive)
same,carcinogen call,"mouse, strain B6AKF1, males, oral dosing, site: any site (literature study), lesion: several types, types named in the paper, dosed 76 weeks, study length 76 weeks",negative (inactive)
same,carcinogen call,"mouse, strain B6AKF1, males, oral dosing, site: liver, lesion: hepatoma, dosed 76 weeks, study length 76 weeks",negative (inactive)
same,carcinogen call,"mouse, strain B6AKF1, males, oral dosing, site: lung, lesion: adenoma, dosed 76 weeks, study length 76 weeks",negative (inactive)
same,TD50,"mouse, strain B6C3F1, females, oral dosing, site: any site (literature study), lesion: several types, types named in the paper, dosed 76 weeks, study length 76 weeks",5.34 mg/kg/day (inactive)
same,carcinogen call,"mouse, strain B6C3F1, females, oral dosing, site: liver, lesion: hepatoma, dosed 76 weeks, study length 76 weeks",negative (inactive)
same,carcinogen call,"mouse, strain B6C3F1, females, oral dosing, site: lung, lesion: several types, types named in the paper, dosed 76 weeks, study length 76 weeks",negative (inactive)
same,TD50,"mouse, strain B6C3F1, males, oral dosing, site: any site (literature study), lesion: several types, types named in the paper, dosed 76 weeks, study length 76 weeks",0.7 mg/kg/day (inactive)
same,carcinogen call,"mouse, strain B6C3F1, males, oral dosing, site: liver, lesion: hepatoma, dosed 76 weeks, study length 76 weeks",negative (inactive)
same,TD50,"mouse, strain B6C3F1, males, oral dosing, site: lung, lesion: adenoma, dosed 76 weeks, study length 76 weeks",1.27 mg/kg/day (inactive)
